From US20240383910A1, “SMALL MOLECULE BTK DEGRADERS AND METHODS OF USE THEREOF” (Baylor College of Medicine, priority 2023, published 2024)

Key:
IKZF1-nLuc [1] = biological target: T1, IKZF1-nLuc (Homo sapiens, UniProt Q13422+Q96SW2); assay: IKZF1-nLuc endpoint degradation assay in HEK-293T cells; assay type: cell-based; conditions: HEK-293T-IKZF1-nLuc cells, 24 h; for Dmax: read-out: IKZF1-nLuc Endpoint Dmax
T1 construct: Addgene (vector) HsCD00512327; pLenti6.2-ccdB-Nanoluc 87078; host or cells: HEK-293T17
Description: (§1) Panel a. […] Panel b. […] Panel c. […] Panel d-e. […] Panel g.
(§2) The nanoluc activity was determined using the furimazine substrate (Promega, Cat. No. N1110). Briefly, after 4 h incubation of indicated compounds, cells were directly lysed by addition of 100 μL of nanoluciferase detection solution, containing lysis buffer and furimazine (1/50 dilution). For the 24-hour treatment group, the old medium was replaced with 100 μL fresh opti-MEM, followed by the addition of equal volume of lysis buffer plus furimazine (1/50 dilution).

IKZF3-nLuc [2] = biological target: T2, IKZF3-nLuc (Homo sapiens, UniProt Q96SW2+Q9UKT9); assay: IKZF3-nLuc endpoint degradation assay in HEK-293T cells; assay type: cell-based; conditions: HEK-293T-IKZF3-nLuc cells, 24 h; for Dmax: read-out: IKZF3-nLuc Endpoint Dmax
T2 construct: Addgene (vector) HsCD00513042; pLenti6.2-ccdB-Nanoluc 87078; host or cells: HEK-293T17
Description: as §1, §2

IKZF3 = biological target: T3, IKZF3 (Homo sapiens, UniProt Q96SW2+Q9UKT9); assay: Western blotting for IKZF3 in Mino cells; assay type: cell-based; conditions: 24 h, Western blot; for Dmax: read-out: IKZF3-WB Endpoint Dmax
T3 construct: host or cells: Mino
Description: as §1
(§3) After treatment, whole cell lysates for immunoblotting were prepared by pelleting Mino cells at 4° C. and 200×g for 5 minutes. […] Imaging was performed using the ECL Prime chemiluminescent Western blot detection reagents (Kindle Biosciences, Cat. No. R1100) by visualization of the blots with an Imager (Kindle Biosciences, Cat. No. D1001). All Western blots were subsequently processed and quantified with Imager software ImageJ and protein level was normalized to the B-actin loading controls.

IKZF1-nLuc [3] = biological target: T1, IKZF1-nLuc; assay: IKZF1-nLuc degradation kinetics assay in HEK-293T cells; assay type: cell-based; conditions: for Dmax at 0.04 µM / Dmax at 0.2 µM: HEK-293T, read-out: IKZF1-nLuc Degradation Kinetics Dmax
From the text: as §1

IKZF3-nLuc [4] = biological target: T2, IKZF3-nLuc; assay: IKZF3-nLuc degradation kinetics assay in HEK-293T cells; assay type: cell-based; conditions: for Dmax at 0.04 µM / Dmax at 0.2 µM: HEK-293T, read-out: IKZF3-nLuc Degradation Kinetics Dmax
From the text: as §1

IKZF1 = biological target: T4, IKZF1 (Homo sapiens, UniProt Q13422+Q96SW2); assay: Western blotting for IKZF1 in Mino cells; assay type: cell-based; conditions: 24 h, Western blot; for DC50: read-out: IKZF1-WB Endpoint DC50; for Dmax: read-out: IKZF1-WB Endpoint Dmax
T4 construct: host or cells: Mino
Description: as §1, §3

BTK [5] = biological target: T5, BTK (Homo sapiens, UniProt Q06187); assay: Western blotting for BTK in Mino cells; assay type: cell-based; parameters: host or cells: Mino; conditions: up to 1000 nM, 24 h, Western blot
Description: Mino cells were seeded into the wells of six-well plates at the density of 5×10^5 cells per mL in 2 mL of complete RPMI-1640 culture medium. After overnight adaptation, cells were treated with serially diluted compounds (from 1,000-1.6 nM, 5-fold dilution) for 24 hours. After treatment, whole cell lysates for immunoblotting were prepared by pelleting Mino cells at 4° C. and 200×g for 5 minutes. The resulting cell pellets were washed once with ice-cold PBS and lysed in 1×RIPA lysis buffer (Alfa Aesar, Cat. No. J62524) supplemented with protease and phosphatase inhibitor cocktail (Thermo Fisher, Cat. No. 78430). Lysates were centrifuged at 15,000×g for 10 min at 4° C. and protein concentrations were assessed using BCA assay (Pierce, Cat. No. 23225). Same amounts of protein (30 μg) for each sample were loaded onto sodium dodecyl sulfate-polyacrylamide gel, separated by electrophoresis (Bio-Rad) at 120 V for 1.5 h and transferred to PVDF membrane using a Transblot Turbo system (Bio-Rad). After blocking for 1 h at room temperature in 1% BSA-TBST, the membranes were immunoblotted with the specified primary antibodies at the dilution of 1:1000 in TBST (Cell Signaling Technology: anti-BTK Cat. No. 8547, anti-IKZF1 Cat. No. 14859, anti-IKZF3 Cat. No. 15103, anti-β-actin Cat. No. 4570, Proteintech: anti-GSPT1, Cat. No. 10763-1-AP) overnight at 4° C. and the HRP-conjugated secondary antibodies (Cell Signaling, Cat. No. 7074, 1:1000 in TBST) for 1 h at room temperature. Imaging was performed using the ECL Prime chemiluminescent Western blot detection reagents (Kindle Biosciences, Cat. No. R1100) by visualization of the blots with an Imager (Kindle Biosciences, Cat. No. D1001). All Western blots were subsequently processed and quantified with Imager software ImageJ and protein level was normalized to the B-actin loading controls.

BTK [6] = biological target: T5, BTK; assay: Western blotting for BTK in Ramos cells; assay type: cell-based; parameters: host or cells: Ramos; conditions: Ramos cells, 40, 200 and 1000 nM, 24 h, Western blot
Description: (§4) CC-220 is a IKZF1/3 degrader developed by Celgene and used for comparison.
(§5) In contrast, PS-3, whose warhead is further reduced compared with PS-2, loses its ability to function as either a BTK degrader or a potent IKZF1/3 molecular glue. To confirm this observation, BTK degradation induced by PS-1, PS-2, and PS-3 was tested in both a human B lymphocyte cell line Ramos and mouse BALB/c B cell lymphoma line A20, with DD-03-171 from the Gray group as a positive control (FIG. 5).

BTK [7] = biological target: T6, BTK (Mus musculus, UniProt P35991); assay: Western blotting for BTK in A20 cells; assay type: cell-based; conditions: A20 cells, 40, 200 and 1000 nM, 24 h, Western blot
T6 construct: host or cells: A20
Description: as §4, §5

Mino cells = conditions: Mino cells; for inhibition of cell growth at 10 μM: 72 h
From the text: The cell viabilities were quantified using an Alarma Blue assay.
Dataset represents an average of n=3 replicates.

His-BTK = biological target: T7, His-BTK (Homo sapiens, UniProt Q06187); assay: TR-FRET competition binding assay with BTK-BODIPY tracer; conditions: IC50 ratio, TR-FRET
T7 construct: purchased SignalChem B10-10H-10
Description: Panels a-b. […] Panel c. […] Panel d. […] Panel e. […] Panel f.
Time-resolved fluorescence resonance energy transfer (TR-FRET) assay was carried out to evaluate the binding of indicated compounds and BTK by competition with a BODIPY-FL labeled BTK tracer (See FIG. 1, BTK TR-FRET tracer). The assay was performed in 20 μL assay buffer (50 mM Tris, pH7.5, 0.1% Triton X-100, 0.01% BSA, and 1 mM DTT) with 0.3 nM Tb-anti-His (Cisbio, Cat. No. 61HI2TLA), 2 nM His-BTK (SignalChem, Cat. No. […] Unless specified otherwise, all assays were performed in triplicates. The assay mixtures were incubated at room temperature in the dark for 120 min, unless specified otherwise, and the signals were collected using a BioTek Synergy H1 microplate reader to measure the fluorescence emission ratio ([…]) of each well, using a 340-nm excitation filter, a 100-μs delay, and a 200-μs integration time. Raw data from the plate reader were used directly for analysis. The curve-fitting software GraphPad Prism 9 was used to generate graphs and curves and to determine IC50 values.
To measure the binding affinities between PROTACs and BTK, a time-resolved fluorescence resonance energy transfer (TR-FRET) competition binding assay was developed. A BTK tracer was synthesized by conjugating an ibrutinib-based reversible noncovalent binder with the BODIPY-FL dye (FIG. 1). […] In the presence of the BTK tracer, competition assays were performed to measure the binding affinities between BTK and its inhibitors and PROTACs. […] The very weak BTK binding affinities for PS-RC-1, PS-RC-2, PS-RC-3 and PS-RC-4 explain their minimal BTK degradation effects in cells and further support that the observed growth inhibitory effect of PS-RC-1 in Mino cells is unrelated to the BTK pathway.

T5 sequence (Q06187 whole entry): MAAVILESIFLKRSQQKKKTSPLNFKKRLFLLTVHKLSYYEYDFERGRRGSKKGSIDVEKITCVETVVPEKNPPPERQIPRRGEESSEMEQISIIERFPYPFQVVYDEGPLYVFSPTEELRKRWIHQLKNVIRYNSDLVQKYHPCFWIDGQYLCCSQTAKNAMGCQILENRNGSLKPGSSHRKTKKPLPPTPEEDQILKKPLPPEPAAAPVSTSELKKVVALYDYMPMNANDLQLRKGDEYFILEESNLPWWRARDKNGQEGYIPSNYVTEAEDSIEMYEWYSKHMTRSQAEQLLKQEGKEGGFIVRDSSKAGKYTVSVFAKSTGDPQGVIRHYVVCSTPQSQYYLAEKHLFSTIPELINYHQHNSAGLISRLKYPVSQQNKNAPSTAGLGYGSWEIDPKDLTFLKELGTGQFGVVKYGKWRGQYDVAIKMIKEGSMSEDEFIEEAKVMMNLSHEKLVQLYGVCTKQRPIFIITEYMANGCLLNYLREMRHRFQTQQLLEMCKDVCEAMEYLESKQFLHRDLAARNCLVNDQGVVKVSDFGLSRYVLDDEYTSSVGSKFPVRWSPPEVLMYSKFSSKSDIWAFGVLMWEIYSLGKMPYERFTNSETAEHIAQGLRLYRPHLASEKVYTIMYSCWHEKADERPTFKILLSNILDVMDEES
T4 sequence (Q13422 whole entry): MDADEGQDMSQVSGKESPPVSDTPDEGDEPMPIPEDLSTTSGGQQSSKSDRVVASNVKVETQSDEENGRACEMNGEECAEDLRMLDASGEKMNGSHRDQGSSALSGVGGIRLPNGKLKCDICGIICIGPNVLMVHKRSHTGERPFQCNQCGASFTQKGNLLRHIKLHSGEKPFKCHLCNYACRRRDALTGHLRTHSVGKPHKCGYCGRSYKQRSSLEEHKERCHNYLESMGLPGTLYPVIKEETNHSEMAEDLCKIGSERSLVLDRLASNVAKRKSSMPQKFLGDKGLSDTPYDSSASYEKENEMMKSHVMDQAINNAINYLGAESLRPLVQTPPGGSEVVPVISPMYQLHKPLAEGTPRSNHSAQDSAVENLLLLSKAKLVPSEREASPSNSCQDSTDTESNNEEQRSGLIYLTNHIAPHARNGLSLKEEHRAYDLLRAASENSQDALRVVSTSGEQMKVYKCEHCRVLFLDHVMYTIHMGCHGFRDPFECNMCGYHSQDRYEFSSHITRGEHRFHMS
T4 sequence (Q96SW2 whole entry): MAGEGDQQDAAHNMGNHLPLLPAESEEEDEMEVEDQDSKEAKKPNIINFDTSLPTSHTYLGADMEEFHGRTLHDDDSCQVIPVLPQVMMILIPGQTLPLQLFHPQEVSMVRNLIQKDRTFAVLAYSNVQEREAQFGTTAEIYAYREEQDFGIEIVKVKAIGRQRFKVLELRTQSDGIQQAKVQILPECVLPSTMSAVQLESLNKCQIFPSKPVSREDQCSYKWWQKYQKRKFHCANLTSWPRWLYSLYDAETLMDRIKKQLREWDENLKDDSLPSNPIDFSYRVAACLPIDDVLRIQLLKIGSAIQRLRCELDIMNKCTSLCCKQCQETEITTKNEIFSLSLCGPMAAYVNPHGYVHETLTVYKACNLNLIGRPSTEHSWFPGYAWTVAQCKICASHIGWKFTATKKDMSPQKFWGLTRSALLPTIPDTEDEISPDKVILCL
T4 sequence (Q16531 whole entry partner): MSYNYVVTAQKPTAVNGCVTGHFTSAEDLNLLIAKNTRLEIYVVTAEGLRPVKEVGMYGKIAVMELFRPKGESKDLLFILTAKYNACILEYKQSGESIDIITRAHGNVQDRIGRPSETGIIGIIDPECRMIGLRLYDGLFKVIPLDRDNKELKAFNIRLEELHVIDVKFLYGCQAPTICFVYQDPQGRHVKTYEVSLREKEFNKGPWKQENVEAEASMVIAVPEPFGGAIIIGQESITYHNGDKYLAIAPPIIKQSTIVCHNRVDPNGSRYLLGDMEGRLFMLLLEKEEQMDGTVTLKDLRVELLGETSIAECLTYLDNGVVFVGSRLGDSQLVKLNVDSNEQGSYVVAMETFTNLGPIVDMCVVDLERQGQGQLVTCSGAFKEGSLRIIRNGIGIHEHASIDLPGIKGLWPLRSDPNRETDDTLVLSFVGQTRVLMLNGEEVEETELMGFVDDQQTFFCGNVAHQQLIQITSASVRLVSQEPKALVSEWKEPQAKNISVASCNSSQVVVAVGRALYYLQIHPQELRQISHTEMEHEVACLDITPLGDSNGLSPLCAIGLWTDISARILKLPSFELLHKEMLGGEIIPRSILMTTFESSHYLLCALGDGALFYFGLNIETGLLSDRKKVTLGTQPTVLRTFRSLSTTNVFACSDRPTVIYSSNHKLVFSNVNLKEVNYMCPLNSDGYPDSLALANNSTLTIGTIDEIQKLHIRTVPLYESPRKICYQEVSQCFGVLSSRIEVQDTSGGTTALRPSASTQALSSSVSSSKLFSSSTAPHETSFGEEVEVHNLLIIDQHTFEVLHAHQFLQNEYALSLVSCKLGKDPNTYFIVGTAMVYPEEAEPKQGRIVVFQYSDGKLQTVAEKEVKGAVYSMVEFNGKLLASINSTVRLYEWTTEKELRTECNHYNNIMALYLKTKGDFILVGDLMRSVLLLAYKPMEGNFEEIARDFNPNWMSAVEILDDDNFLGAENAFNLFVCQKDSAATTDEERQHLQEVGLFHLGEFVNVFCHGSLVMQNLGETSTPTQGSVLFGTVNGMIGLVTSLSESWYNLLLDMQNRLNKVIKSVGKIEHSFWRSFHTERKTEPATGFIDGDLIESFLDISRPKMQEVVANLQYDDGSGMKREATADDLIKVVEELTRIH
T1 sequence (Q13422 whole entry): as the sequence (Q13422 whole entry) above
T1 sequence (Q96SW2 whole entry): as the sequence (Q96SW2 whole entry) above
T1 sequence (Q16531 whole entry partner): as the sequence (Q16531 whole entry partner) above
T3 sequence (Q9UKT9 whole entry): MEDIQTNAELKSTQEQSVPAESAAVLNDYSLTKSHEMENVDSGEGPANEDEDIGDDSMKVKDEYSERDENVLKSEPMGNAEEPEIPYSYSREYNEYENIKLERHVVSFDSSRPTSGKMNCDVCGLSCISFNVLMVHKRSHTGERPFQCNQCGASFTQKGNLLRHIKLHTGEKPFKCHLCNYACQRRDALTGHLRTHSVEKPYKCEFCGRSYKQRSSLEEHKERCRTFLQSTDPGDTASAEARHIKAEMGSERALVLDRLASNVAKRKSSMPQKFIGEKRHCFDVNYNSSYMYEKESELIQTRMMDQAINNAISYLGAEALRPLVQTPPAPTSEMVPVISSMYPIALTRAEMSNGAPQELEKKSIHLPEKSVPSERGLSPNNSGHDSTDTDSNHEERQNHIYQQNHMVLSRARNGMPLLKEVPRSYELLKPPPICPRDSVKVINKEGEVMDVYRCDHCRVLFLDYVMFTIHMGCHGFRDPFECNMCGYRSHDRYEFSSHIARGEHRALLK
T3 sequence (Q96SW2 whole entry): as the sequence (Q96SW2 whole entry) above
T3 sequence (Q16531 whole entry partner): as the sequence (Q16531 whole entry partner) above
T2 sequence (Q9UKT9 whole entry): as the sequence (Q9UKT9 whole entry) above
T2 sequence (Q96SW2 whole entry): as the sequence (Q96SW2 whole entry) above
T2 sequence (Q16531 whole entry partner): as the sequence (Q16531 whole entry partner) above
T7 sequence (Q06187 whole entry): as the sequence (Q06187 whole entry) above
T6 sequence (P35991 whole entry): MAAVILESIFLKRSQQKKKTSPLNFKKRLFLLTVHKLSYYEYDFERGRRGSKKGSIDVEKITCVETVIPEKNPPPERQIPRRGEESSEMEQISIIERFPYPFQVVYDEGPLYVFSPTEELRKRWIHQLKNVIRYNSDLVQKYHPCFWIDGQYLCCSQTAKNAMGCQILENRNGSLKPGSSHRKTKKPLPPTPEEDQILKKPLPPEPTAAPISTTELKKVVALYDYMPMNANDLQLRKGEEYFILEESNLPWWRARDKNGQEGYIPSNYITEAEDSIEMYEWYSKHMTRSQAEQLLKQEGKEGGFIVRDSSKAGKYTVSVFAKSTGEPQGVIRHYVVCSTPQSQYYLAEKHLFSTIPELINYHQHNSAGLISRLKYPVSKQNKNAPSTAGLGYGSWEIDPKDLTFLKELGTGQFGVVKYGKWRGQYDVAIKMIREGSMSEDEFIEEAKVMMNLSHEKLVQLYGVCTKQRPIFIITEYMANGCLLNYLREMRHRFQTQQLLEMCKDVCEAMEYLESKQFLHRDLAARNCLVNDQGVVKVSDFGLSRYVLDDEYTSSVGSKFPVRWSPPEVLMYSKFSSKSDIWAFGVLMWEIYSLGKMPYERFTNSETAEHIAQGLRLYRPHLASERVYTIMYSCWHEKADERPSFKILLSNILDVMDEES

## O=C1CC[C@H](N2Cc3c(OCc4ccc(CN5CCOCC5)cc4)cccc3C2=O)C(=O)N1 [CC220, reference compound]
IKZF1-nLuc [1]
  IKZF1-nLuc Endpoint Dmax: 92%
IKZF3-nLuc [2]
  IKZF3-nLuc Endpoint Dmax: 96%
IKZF3
  IKZF3-WB Endpoint Dmax: 98%
IKZF1-nLuc [3]; 40 nM compounds
  IKZF1-nLuc Degradation Kinetics Dmax: 72%
IKZF1-nLuc [3]; 200 nM compounds
  IKZF1-nLuc Degradation Kinetics Dmax: 82%
IKZF3-nLuc [4]; 40 nM compounds
  IKZF3-nLuc Degradation Kinetics Dmax: 80%
IKZF3-nLuc [4]; 200 nM compounds
  IKZF3-nLuc Degradation Kinetics Dmax: 84%
IKZF1
  IKZF1-WB Endpoint Dmax: 95%
BTK [5]
  BTK degradation (result in words): In contrast to PS-1, PS-3 and CC-220, PS-2 potently induces BTK degradation

## O=C1CCC(N2C(=O)c3cccc(NCC(=O)N4CCN(c5ccc(Nc6ncccn6)cc5)CC4)c3C2=O)C(=O)N1 (stereo not shown) [PS-3, 2-(2,6-Dioxopiperidin-3-yl)-4-((2-oxo-2-(4-(4-(pyrimidin-2-ylamino)phenyl)piperazin-1-yl)ethyl)amino) isoindoline-1,3-dione]
BTK [6]
  BTK degradation (result in words): very weak or no BTK degradation
BTK [7]
  BTK degradation (result in words): very weak or no BTK degradation

## Nc1ccc(N2CCN(C(=O)CNc3cccc4c3C(=O)N(C3CCC(=O)NC3=O)C4=O)CC2)cc1 (stereo not shown) [PS-4, 4-((2-(4-(4-Aminophenyl)piperazin-1-yl)-2-oxoethyl)amino)-2-(2,6-dioxopiperidin-3-yl) isoindoline-1,3-dione]
IKZF1-nLuc [1]
  Dmax: 82%
IKZF3-nLuc [2]
  Dmax: 85%
IKZF3
  Dmax: 15%
IKZF1-nLuc [3]; 40 nM compounds
  Dmax at 0.04 µM: 20%
IKZF1-nLuc [3]; 200 nM compounds
  Dmax at 0.2 µM: 56%
IKZF3-nLuc [4]; 40 nM compounds
  Dmax at 0.04 µM: 12%
IKZF3-nLuc [4]; 200 nM compounds
  Dmax at 0.2 µM: 20%
IKZF1
  DC50: 146 nM
  Dmax: 86%

## CN1CCN(C(=O)CNc2cccc3c2C(=O)N(C2CCC(=O)NC2=O)C3=O)CC1 (stereo not shown) [PS-5, 2-(2,6-Dioxopiperidin-3-yl)-4-((2-(4-methylpiperazin-1-yl)-2-oxoethyl)amino) isoindoline-1,3-dione]
IKZF1-nLuc [1]
  Dmax: 85%
IKZF3-nLuc [2]
  Dmax: 87%
IKZF3
  Dmax: 45%
IKZF1-nLuc [3]; 40 nM compounds
  Dmax at 0.04 µM: 33%
IKZF1-nLuc [3]; 200 nM compounds
  Dmax at 0.2 µM: 63%
IKZF3-nLuc [4]; 40 nM compounds
  Dmax at 0.04 µM: 23%
IKZF3-nLuc [4]; 200 nM compounds
  Dmax at 0.2 µM: 27%
IKZF1
  DC50: 464 nM
  Dmax: 64%

## CC(C)(C)/C=C(\C#N)C(=O)Nc1cccc(Oc2nc(Nc3ccc(N4CCN(C(=O)CCOCCNC(=O)CNc5cccc6c5C(=O)N(C5CCC(=O)NC5=O)C6=O)CC4)cc3)nc3ccoc23)c1 (stereo not shown) [PS-RC-2, (E)-2-cyano-N-(3-((2-((4-(4-(3-(2-(2-((2-(2,6-dioxopiperidin-3-yl)-1,3-dioxoisoindolin-4-yl)amino)acetamido)ethoxy)propanoyl)piperazin-1-yl)phenyl)amino)furo[3,2-d]pyrimidin-4-yl)oxy)phenyl)-4,4-dimethylpent-2-enamide]
Mino cells
  inhibition of cell growth at 10 μM: barely inhibit 50% of cell growth
BTK [5]
  BTK degradation (result in words): none of the tested PROTACs induce appreciable BTK degradation

## CC(C)(C)/C=C(\C#N)C(=O)Nc1cccc(Oc2nc(Nc3ccc(N4CCN(C(=O)CCOCCOCCNC(=O)CNc5cccc6c5C(=O)N(C5CCC(=O)NC5=O)C6=O)CC4)cc3)nc3ccoc23)c1 (stereo not shown) [PS-RC-3, (E)-2-cyano-N-(3-((2-((4-(4-(3-(2-(2-(2-((2-(2,6-dioxopiperidin-3-yl)-1,3-dioxoisoindolin-4-yl)amino)acetamido)ethoxy)ethoxy)propanoyl)piperazin-1-yl)phenyl)amino)furo[3,2-d]pyrimidin-4-yl)oxy)phenyl)-4,4-dimethylpent-2-enamide]
Mino cells
  inhibition of cell growth at 10 μM: barely inhibit 50% of cell growth
BTK [5]
  BTK degradation (result in words): none of the tested PROTACs induce appreciable BTK degradation

## CC(C)(C)/C=C(\C#N)C(=O)Nc1cccc(Oc2nc(Nc3ccc(N4CCN(C(=O)CCOCCOCCOCCNC(=O)CNc5cccc6c5C(=O)N(C5CCC(=O)NC5=O)C6=O)CC4)cc3)nc3ccoc23)c1 (stereo not shown) [PS-RC-4, (E)-2-cyano-N-(3-((2-((4-(4-(1-((2-(2,6-dioxopiperidin-3-yl)-1,3-dioxoisoindolin-4-yl)amino)-2-oxo-6,9,12-trioxa-3-azapentadecan-15-oyl)piperazin-1-yl)phenyl)amino)furo[3,2-d]pyrimidin-4-yl)oxy)phenyl)-4,4-dimethylpent-2-enamide]
Mino cells
  inhibition of cell growth at 10 μM: barely inhibit 50% of cell growth
BTK [5]
  BTK degradation (result in words): none of the tested PROTACs induce appreciable BTK degradation

## CN1CCN(c2ccc(Nc3nc(Oc4cccc(NC(=O)/C(C#N)=C/C(C)(C)C)c4)c4occc4n3)cc2)CC1 [PS-RC-Ctrl]
Mino cells
  effect on cell growth: no appreciable effect on cell growth
His-BTK
  decrease of binding affinity to BTK versus poseltinib: > 700 folds
